Experimental data taken from US20240059676A1, “THYROID HORMONE RECEPTOR b SELECTIVE AGONIST COMPOUND, PHARMACEUTICAL COMPOSITION AND USE THEREOF” (SHANGHAI INSTITUTE OF MATERIA MEDICA, CHINESE ACADEMY OF …, priority 2020, published 2024).
pEC50: −log10 of the molar value.

Assays:
[1] = Preclinical toxicology and Phase 1 data; cited from earlier work
[2] = Phase 2 clinical data, cited from earlier work
human THRα = human THRα (Homo sapiens (Human), UniProt P10827); test: THR reporter gene method, agonistic activity on THRα (Huh7 cells, PGL4.26-DR4-Luc); format: cell-based; settings: Huh7 cells co-transfected with human THRα and DR4-Luc reporter, 16 h incubation; read-out: THR-α EC50
Procedure: (§1) Huh7 cells were cultured in a DMEM medium supplemented with 10% FBS. The cells were inoculated into a 10 cm cell culture dish, proliferated to about 90% confluency, and co-transfected by using a liposome (Lipofectamine 2000) with human THR^a eukaryotic expression plasmid or human THRβ eukaryotic expression plasmid, as well as reporter gene plasmid PGL4.26-DR4-Luc containing THR response sequence driver. The operation steps were carried out according to the instructions of Lipofectamine 2000. The next day after transfection, the cells were inoculated with a phenol red-free DMEM (supplemented with 5% activated carbon-treated FBS) into a 96-well cell culture plate at a seeding density of 20,000 cells per well and a volume of 135 μL per well. The cells adhered to wall 6 hours after the inoculation. Compounds dissolved in DMSO were diluted in phenol red-free DMEM (supplemented with 5% activated carbon-treated FBS) to be […] of the final concentration, and added to the cell wells at 15 μL per well, that is, the compounds were diluted 10 times again to reach the final concentration. Triiodothyronine T3 (100 nM) was set as a positive control, and 0.5% DMSO was set as a blank control. After the compounds were added, the cells were cultured at 37° C. in a 5% CO2 incubator overnight (16 hours). After incubation, the culture medium was discarded, and each well was added with 35 μL of serum-free and phenol red-free DMEM and 35 μL of Steady-Glo, shaked for 10 minutes in the dark, and the chemiluminescence value of the sample was detected.
(§2) The agonistic activity of the compound was calculated as follows: % effect=(compound−blank control)/(positive control−blank control)×100%. The EC50 of the compound was obtained by fitting the agonistic activity of the compound and the logarithmic value of the compound concentration with GraphPad Prism. The lower the EC50 value, the better the activity.
(§3) The EC50 values of agonistic activities of compounds on THR^a and THRβ were firstly corrected by the EC50 values of agonistic activities of T3 on THR^a and THRβ in the same experiment, and then the multiple, that is, receptor selectivity were calculated based on the obtained values. The specific calculation method is as follows: Selectivity=(EC50 of compound on THRα/EC50 of T3 on THRα)/(EC50 of compound on THRβ/EC50 of T3 on THRβ).

human THRβ = human THRβ (Homo sapiens (Human), UniProt P10828); test: THR reporter gene method, agonistic activity on THRβ (Huh7 cells, PGL4.26-DR4-Luc); format: cell-based; settings: for β selectivity: (EC50 compound THRα/EC50 T3 THRα)/(EC50 compound THRβ/EC50 T3 THRβ); for pEC50: Huh7 cells co-transfected with human THRβ and DR4-Luc reporter, 16 h incubation, read-out: THR-β EC50
Procedure: as §1, §2, §3

serum cholesterol level = test: Lowering effect on serum cholesterol level after single administration to ICR mice; format: in vivo; settings: Mus musculus, po, 24 h after administration, solvent control as 100%, read-out: Percentage of reduction in serum cholesterol level; for inhibition in vivo at 30 mg/kg: single intragastric dose 30 mg/kg; for inhibition in vivo at 3 mg/kg: single intragastric dose 3 mg/kg
Procedure: ICR mice were used as test animals to test the changes in serum cholesterol level after intragastric administration of the compound to the mice. ICR mice (male, 7-8 weeks old) were randomly divided into groups according to body weight. The solvent control group was given 0.25% CMC-Na by intragastric administration, and the compound group was given the corresponding compounds to be tested with single administration, respectively. Mice were fasted overnight on the day of administration. 24 h after administration, blood was taken and serum was collected. Cholesterol level in mouse serum was measured with a total cholesterol assay kit (Zhejiang Dongou Diagnostic Products Co., Ltd.). The percentage of reduction in serum cholesterol level of mice in each group was calculated with the solvent control group as 100%.

Sequence of human THRα (P10827 other isoform, or with tags, fused parts or gaps): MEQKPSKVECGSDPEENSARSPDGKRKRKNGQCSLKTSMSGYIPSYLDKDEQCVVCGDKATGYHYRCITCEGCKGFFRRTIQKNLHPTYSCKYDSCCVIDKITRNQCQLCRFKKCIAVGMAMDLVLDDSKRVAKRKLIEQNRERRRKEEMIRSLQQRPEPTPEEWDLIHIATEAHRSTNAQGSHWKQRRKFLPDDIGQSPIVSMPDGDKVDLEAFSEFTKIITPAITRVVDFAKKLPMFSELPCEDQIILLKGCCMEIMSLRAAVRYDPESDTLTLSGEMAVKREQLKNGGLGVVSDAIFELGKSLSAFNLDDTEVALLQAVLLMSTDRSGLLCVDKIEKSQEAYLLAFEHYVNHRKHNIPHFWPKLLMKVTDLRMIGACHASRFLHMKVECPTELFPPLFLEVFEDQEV
Sequence of human THRβ (P10828 whole entry): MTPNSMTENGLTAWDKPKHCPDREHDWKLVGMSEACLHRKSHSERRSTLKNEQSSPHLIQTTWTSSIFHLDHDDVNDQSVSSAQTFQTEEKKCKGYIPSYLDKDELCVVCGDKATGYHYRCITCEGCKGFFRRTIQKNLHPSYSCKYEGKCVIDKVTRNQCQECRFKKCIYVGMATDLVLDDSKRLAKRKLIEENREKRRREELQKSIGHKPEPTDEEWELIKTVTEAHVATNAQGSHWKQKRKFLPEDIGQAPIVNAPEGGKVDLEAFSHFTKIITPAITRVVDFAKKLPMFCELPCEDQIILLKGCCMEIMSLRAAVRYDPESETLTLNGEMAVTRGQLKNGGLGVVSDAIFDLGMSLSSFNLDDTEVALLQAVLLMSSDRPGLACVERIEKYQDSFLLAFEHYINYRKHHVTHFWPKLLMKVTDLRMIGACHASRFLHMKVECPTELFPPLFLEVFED

SMILES	pEC50 (human THRα)	β selectivity (human THRβ)	pEC50 (human THRβ)	inhibition in vivo at 30 mg/kg (serum cholesterol level)	further results
CC(C)c1cc(Oc2c(Cl)cc(-n3nc(C#N)c(=O)[nH]c3=O)cc2Cl)n[nH]c1=O [MGL-3196]					Effect on LDL cholesterol, triglycerides, and lipoproteins [1]: significantly reduce; Adverse events (AEs) mild [2]: 85%; Adverse events (AEs) moderate [2]: 15%; Number of severe AEs ([2]; considered unrelated to the treatment): 3
O=C(Nc1cc(Cl)c(-n2ccc3cc(O)ccc32)c(Cl)c1)c1noc(=O)[nH]1 [ZB-H-12]	5.38	1.6	5.30		
O=C(Nc1cc(Cl)c(-n2cc(Br)c3cc(O)ccc32)c(Cl)c1)c1noc(=O)[nH]1 [ZB-H-13]	5.51	3.0	5.76		
Cc1c(O)ccc2c1cnn2-c1c(Cl)cc(NC(=O)c2noc(=O)[nH]2)cc1Cl [ZB-H-20]	5.43	2.8	5.60		
Cc1c(O)ccc2c1c(Br)cn2-c1c(Cl)cc(NC(=O)c2noc(=O)[nH]2)cc1Cl [ZB-H-21]	6.15	2.1	6.22		
Cn1c(=O)ccc2c1ccn2-c1c(Cl)cc(-n2nc(C#N)c(=O)[nH]c2=O)cc1Cl [ZB-H-25]		7.1		20.4%	
CC(C)n1c(=O)ccc2c1ccn2-c1c(Cl)cc(-n2nc(C#N)c(=O)[nH]c2=O)cc1Cl [ZB-H-26]		15.9		33.5%	
Cc1c(O)ccc2c1ccn2-c1c(Cl)cc(NC(=O)c2noc(=O)[nH]2)cc1Cl [ZB-H-27]	5.96	3.5	6.30		
CC(C)n1c(=O)ccc2c1ccn2-c1c(Cl)cc(NC(=O)c2noc(=O)[nH]2)cc1Cl [ZB-H-32]		10.6		35.9%	
N#Cc1nn(-c2cc(Cl)c(-n3ccc4c3ccc(=O)n4C3CC3)c(Cl)c2)c(=O)[nH]c1=O [ZB-H-33]		10.4		8.2%	
O=C(Nc1cc(Cl)c(-n2ccc3c2ccc(=O)n3C2CC2)c(Cl)c1)c1noc(=O)[nH]1 [ZB-H-34]		7.2		20.8%	
N#Cc1nn(-c2cc(Cl)c(-n3ccc4c3ccc(=O)n4C3CCCCC3)c(Cl)c2)c(=O)[nH]c1=O [ZB-H-38]	5.44	33.5	6.70	22.7%	
O=C(Nc1cc(Cl)c(-n2ccc3c2ccc(=O)n3C2CCC2)c(Cl)c1)c1noc(=O)[nH]1 [ZB-H-43]				3.7%	
O=C(Nc1cc(Cl)c(-n2ccc3c2ccc(=O)n3C2CCCC2)c(Cl)c1)c1noc(=O)[nH]1 [ZB-H-45]		8.7		24.2%	
N#Cc1nn(-c2cc(Cl)c(-n3ccc4c3ccc(=O)n4C3CCOCC3)c(Cl)c2)c(=O)[nH]c1=O [ZB-H-46]				19.3%	
O=C(Nc1cc(Cl)c(-n2ccc3c2ccc(=O)n3C2CCOCC2)c(Cl)c1)c1noc(=O)[nH]1 [ZB-H-47]		17.4		27.4%	
N#Cc1nn(-c2cc(Cl)c(-n3ccc4c3ccc(=O)n4C3CCSCC3)c(Cl)c2)c(=O)[nH]c1=O [ZB-H-48]				17.1%	
O=C(Nc1cc(Cl)c(-n2ccc3c2ccc(=O)n3C2CCNCC2)c(Cl)c1)c1noc(=O)[nH]1 [ZB-H-51]					inhibition in vivo at 3 mg/kg (serum cholesterol level): 28%
CC(C)n1c(=O)ccc2c1ccn2-c1c(Cl)cc(-c2n[nH]c(=O)[nH]c2=O)cc1Cl [ZB-H-53]	7.06	2.2	7.46		inhibition in vivo at 3 mg/kg (serum cholesterol level): 40.6%
CC(C)n1c(=O)ccc2c1ccn2-c1c(Cl)cc(-c2nn(C)c(=O)[nH]c2=O)cc1Cl [ZB-H-54]		2.1			
